For orientation: inhibition means the relative decrease from the control value, in per cent.

The target of experiment [1] is Serine/threonine-protein kinase N1 (Homo sapiens) (UniProt Q16512). Nature of the experiment: Inhibition of human PRK1 at 500 nM by HotSpot assay relative to control.
Experiment [2] has as its target T1, Phosphorylase b kinase gamma catalytic chain, liver/testis isoform (Homo sapiens) (UniProt P15735).
T1 sequence (whole entry): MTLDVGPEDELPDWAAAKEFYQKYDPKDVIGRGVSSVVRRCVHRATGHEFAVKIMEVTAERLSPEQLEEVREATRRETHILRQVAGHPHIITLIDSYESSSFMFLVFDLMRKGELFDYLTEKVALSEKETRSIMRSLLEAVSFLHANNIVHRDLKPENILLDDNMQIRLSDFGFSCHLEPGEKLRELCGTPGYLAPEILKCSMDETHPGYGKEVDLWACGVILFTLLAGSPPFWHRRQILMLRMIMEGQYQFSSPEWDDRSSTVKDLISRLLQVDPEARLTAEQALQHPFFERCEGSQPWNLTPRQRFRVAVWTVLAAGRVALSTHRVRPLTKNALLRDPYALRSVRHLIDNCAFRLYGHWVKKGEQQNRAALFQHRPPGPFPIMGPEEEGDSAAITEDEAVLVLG
As to the kind of experiment: Inhibition of human PHKg2 at 500 nM by HotSpot assay relative to control.

Experiment [3] addresses T2, 3-phosphoinositide-dependent protein kinase 1 (Homo sapiens) (UniProt O15530).
T2 sequence (whole entry): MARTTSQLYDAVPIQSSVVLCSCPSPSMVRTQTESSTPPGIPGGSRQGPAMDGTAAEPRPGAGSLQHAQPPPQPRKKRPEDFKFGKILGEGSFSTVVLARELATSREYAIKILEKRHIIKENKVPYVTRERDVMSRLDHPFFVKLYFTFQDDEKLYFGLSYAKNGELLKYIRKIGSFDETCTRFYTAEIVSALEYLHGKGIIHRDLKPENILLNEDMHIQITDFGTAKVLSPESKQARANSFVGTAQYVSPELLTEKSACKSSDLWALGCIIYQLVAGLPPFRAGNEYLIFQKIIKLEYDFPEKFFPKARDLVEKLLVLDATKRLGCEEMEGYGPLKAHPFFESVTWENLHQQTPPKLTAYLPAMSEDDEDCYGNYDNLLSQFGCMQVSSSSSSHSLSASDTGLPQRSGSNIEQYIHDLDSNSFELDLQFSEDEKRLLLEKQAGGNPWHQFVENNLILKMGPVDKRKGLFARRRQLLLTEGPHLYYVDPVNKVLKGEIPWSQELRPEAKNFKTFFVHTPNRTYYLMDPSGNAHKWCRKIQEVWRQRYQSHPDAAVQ
As to the kind of experiment: Inhibition of human PDPK1 at 500 nM by HotSpot assay relative to control.

Experiment [4] addresses Tyrosine-protein kinase Fer (Homo sapiens) (UniProt P16591). Nature of the experiment: Inhibition of human FER at 500 nM by HotSpot assay relative to control.
The target in experiment [5] is T3, Calcium/calmodulin-dependent protein kinase type IV (Homo sapiens) (UniProt Q16566).
T3 sequence (whole entry): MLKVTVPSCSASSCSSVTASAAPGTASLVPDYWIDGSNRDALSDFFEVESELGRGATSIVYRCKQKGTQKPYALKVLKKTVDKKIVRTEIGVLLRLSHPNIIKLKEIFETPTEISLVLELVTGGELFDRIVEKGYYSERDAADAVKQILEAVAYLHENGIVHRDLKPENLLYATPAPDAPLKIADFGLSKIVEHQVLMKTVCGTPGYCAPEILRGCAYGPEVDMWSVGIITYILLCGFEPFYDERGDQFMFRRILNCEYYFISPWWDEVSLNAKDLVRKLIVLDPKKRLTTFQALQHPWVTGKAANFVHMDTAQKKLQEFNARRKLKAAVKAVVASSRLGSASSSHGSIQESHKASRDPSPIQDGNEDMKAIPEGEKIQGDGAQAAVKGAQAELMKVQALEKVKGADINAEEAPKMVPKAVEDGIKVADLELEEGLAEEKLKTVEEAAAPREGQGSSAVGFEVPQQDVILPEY
Nature of the experiment: Inhibition of human CAMK4 at 500 nM by HotSpot assay relative to control.

In experiment [6] the target is Protein kinase C alpha type (Homo sapiens) (UniProt P17252). As to the kind of experiment: Inhibition of human PKCa at 500 nM by HotSpot assay relative to control.
Experiment [7] deals with Ribosomal protein S6 kinase alpha-4 (Homo sapiens) (UniProt O75676). Nature of the experiment: Inhibition of human RPS6KA4 at 500 nM by HotSpot assay relative to control.
Ribosomal protein S6 kinase alpha-4 (Homo sapiens), sequence (O75676 whole entry, looked up): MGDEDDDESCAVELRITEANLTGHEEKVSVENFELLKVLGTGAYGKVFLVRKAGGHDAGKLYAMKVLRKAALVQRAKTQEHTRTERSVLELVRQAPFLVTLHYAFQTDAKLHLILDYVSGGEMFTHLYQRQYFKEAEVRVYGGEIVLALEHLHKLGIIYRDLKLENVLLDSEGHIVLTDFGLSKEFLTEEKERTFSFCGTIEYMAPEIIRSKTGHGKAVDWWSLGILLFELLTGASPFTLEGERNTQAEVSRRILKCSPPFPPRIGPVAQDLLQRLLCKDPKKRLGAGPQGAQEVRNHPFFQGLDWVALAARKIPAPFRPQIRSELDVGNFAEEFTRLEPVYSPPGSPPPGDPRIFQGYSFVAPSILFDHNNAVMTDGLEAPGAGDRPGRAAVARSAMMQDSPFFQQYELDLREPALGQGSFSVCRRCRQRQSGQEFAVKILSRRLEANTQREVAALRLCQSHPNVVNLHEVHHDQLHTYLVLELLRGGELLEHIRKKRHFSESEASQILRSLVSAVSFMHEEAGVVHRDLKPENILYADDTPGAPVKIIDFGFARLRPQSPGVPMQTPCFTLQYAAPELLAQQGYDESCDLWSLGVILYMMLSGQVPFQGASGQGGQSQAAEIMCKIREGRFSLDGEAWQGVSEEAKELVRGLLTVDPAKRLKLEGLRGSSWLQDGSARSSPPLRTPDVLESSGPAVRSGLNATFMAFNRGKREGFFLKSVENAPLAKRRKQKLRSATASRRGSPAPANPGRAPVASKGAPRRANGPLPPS
Experiment [8] has as its target Dual specificity mitogen-activated protein kinase kinase 2 (Homo sapiens) (UniProt P36507). Nature of the experiment: Inhibition of human MEK2 at 500 nM by HotSpot assay relative to control.
Experiment [9] deals with T4, Ephrin type-B receptor 3 (Homo sapiens) (UniProt P54753).
T4 sequence (whole entry): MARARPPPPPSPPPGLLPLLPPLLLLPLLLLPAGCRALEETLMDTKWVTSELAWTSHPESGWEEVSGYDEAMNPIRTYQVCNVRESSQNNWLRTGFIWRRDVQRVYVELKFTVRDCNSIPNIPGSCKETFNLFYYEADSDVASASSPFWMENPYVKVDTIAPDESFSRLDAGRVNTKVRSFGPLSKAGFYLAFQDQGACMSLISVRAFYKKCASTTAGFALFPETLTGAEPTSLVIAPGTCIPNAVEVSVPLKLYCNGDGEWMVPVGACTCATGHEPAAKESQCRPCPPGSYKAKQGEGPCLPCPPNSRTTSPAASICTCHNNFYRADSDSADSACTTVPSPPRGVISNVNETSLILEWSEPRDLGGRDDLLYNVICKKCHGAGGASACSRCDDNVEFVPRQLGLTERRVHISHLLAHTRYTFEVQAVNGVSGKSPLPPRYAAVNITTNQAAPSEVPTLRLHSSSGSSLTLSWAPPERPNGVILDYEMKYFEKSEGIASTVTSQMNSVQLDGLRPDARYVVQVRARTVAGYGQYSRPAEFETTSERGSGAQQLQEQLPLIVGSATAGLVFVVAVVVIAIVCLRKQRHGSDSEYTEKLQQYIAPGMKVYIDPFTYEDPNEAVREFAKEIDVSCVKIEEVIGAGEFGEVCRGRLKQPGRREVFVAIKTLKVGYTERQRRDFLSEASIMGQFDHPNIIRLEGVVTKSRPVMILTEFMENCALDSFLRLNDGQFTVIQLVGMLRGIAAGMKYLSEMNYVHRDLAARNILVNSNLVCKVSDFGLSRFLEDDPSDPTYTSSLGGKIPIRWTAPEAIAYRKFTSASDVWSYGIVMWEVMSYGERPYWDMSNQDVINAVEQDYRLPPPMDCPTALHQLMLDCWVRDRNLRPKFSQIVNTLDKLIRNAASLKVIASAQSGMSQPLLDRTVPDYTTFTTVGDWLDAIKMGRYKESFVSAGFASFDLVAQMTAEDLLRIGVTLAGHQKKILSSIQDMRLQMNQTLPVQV
As to the kind of experiment: Inhibition of human EPHB3 at 500 nM by HotSpot assay relative to control.

Experiment [10] addresses Vascular endothelial growth factor receptor 3 (Homo sapiens) (UniProt P35916). Nature of the experiment: Inhibition of human FLT4 at 500 nM by HotSpot assay relative to control.

Tyrosine-protein kinase Fer (Homo sapiens), sequence (P16591 whole entry, looked up): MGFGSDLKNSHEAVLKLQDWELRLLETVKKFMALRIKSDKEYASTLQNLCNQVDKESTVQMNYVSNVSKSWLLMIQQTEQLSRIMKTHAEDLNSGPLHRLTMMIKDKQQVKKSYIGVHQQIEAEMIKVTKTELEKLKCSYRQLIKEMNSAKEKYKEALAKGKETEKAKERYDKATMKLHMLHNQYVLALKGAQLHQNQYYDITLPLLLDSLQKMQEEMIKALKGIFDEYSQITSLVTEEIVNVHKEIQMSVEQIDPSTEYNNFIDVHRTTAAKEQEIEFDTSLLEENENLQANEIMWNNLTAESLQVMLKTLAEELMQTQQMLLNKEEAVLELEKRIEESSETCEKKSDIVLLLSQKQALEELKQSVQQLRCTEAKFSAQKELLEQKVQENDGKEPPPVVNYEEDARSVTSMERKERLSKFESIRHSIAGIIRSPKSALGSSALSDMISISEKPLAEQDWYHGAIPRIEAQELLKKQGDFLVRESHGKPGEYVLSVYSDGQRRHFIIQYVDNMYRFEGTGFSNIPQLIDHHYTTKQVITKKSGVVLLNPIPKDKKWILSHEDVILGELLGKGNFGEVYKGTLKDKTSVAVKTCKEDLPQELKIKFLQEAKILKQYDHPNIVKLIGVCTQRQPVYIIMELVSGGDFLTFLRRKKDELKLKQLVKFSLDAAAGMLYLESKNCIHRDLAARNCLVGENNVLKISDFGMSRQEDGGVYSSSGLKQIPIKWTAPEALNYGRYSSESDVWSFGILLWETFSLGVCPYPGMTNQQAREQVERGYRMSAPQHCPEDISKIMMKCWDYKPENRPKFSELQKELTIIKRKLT
Serine/threonine-protein kinase N1 (Homo sapiens), sequence (Q16512 2-942 limits assumed): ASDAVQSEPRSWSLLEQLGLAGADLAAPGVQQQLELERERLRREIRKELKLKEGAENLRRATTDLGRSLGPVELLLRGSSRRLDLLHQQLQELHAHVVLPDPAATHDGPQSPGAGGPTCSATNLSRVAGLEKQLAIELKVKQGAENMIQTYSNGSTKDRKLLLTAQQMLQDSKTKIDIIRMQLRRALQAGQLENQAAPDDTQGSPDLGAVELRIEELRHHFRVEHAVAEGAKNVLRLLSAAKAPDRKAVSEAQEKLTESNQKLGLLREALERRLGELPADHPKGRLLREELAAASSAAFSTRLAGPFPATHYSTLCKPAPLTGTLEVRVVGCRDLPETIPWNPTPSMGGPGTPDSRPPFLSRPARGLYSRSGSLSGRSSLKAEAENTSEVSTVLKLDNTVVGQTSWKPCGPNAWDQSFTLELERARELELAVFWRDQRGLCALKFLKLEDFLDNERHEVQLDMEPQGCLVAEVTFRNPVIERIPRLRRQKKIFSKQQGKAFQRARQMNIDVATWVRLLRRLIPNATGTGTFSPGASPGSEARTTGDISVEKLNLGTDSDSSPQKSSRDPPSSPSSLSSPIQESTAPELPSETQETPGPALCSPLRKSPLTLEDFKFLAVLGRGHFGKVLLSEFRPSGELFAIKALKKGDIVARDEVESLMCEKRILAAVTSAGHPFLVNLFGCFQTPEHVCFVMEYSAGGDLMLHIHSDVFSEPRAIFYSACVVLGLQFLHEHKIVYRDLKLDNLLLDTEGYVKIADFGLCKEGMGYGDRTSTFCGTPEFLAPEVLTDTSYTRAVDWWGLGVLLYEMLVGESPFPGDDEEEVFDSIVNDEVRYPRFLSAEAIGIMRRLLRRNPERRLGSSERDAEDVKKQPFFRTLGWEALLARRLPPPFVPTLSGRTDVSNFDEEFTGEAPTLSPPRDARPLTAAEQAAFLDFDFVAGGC
Dual specificity mitogen-activated protein kinase kinase 2 (Homo sapiens), sequence (P36507 whole entry): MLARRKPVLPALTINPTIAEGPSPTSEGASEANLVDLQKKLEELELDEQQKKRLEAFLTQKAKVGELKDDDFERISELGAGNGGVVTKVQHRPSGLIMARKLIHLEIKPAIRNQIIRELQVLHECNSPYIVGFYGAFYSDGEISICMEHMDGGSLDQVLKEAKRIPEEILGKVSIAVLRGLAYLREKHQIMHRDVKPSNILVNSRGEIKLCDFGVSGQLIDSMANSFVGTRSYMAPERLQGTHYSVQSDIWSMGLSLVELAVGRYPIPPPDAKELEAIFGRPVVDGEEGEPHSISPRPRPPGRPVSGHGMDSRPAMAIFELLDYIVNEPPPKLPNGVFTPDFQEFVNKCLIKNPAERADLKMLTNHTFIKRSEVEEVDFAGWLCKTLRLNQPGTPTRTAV
Vascular endothelial growth factor receptor 3 (Homo sapiens), sequence (P35916 whole entry): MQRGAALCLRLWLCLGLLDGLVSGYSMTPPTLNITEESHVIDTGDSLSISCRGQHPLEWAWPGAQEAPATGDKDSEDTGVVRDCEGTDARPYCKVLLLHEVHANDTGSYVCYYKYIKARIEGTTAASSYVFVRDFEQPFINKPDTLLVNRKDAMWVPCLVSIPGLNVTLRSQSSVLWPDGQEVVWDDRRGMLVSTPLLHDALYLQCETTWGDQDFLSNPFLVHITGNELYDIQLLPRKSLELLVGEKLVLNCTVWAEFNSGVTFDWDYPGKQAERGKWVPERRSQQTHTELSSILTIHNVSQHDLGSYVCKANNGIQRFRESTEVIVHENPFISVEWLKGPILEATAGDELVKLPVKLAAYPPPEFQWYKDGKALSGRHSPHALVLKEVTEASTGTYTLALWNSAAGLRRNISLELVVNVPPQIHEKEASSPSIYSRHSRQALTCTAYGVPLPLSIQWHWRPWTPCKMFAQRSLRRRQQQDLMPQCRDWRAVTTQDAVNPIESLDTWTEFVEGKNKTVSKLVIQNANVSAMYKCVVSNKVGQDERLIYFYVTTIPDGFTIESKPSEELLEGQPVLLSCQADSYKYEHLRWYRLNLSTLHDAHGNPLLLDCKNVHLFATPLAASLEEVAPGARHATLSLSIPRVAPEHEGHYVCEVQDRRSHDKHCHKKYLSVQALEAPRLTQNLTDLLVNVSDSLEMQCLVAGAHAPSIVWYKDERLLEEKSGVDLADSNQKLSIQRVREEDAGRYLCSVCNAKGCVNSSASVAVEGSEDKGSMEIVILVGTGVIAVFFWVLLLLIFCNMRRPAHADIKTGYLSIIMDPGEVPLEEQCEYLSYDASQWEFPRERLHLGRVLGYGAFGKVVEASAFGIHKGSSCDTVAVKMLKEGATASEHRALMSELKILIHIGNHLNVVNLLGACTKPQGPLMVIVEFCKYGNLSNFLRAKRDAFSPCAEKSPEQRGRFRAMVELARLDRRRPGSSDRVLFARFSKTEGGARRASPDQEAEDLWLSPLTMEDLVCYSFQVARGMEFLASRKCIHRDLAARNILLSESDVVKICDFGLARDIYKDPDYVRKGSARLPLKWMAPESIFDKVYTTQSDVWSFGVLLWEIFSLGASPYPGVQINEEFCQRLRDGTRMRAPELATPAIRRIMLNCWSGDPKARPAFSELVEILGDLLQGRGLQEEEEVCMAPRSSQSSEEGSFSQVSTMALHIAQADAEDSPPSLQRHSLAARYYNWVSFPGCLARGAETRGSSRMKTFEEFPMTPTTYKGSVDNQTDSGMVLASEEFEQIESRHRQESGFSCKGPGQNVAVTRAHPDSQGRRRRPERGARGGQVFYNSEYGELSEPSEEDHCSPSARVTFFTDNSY

Consider `Oc1n[nH]c2nnc(-c3c(-c4ccccc4)nn4ccccc34)cc12`, for which the inhibition was -0.85% in [1]; 8.79% in experiment [2]; 7.43% in experiment [3]; 17.4% in experiment [4]; 0.79% in experiment [5]; 14.1% in experiment [6]. The inhibition is 1.99% in experiment [7], 1.44% in [8], -1.08% in [9] and 0.44% in experiment [10].

On to `Nc1n[nH]c2nnc(-c3c(-c4ccccc4)nn4ccccc34)cc12`, for which the inhibition is 1.8% in experiment [1]; 17.4% in [2]; -3.56% in experiment [3]; 9.19% in experiment [4]; 5.76% in [5]; 12.8% in experiment [6]. Moreover, the inhibition in experiment [7] was 5.31%; in [8] it was 0.62%; in [9], 3.21%; in experiment [10], 10.1%.

The record behind these values is ChEMBL document CHEMBL5653615 (J Biol Chem, 2013).
